Consider nine compounds from US20210261570A1, “ANTIBIOTIC RESISTANCE BREAKERS” (KING'S COLLEGE LONDON, priority 2017, published 2021).

Values after ≈ are worked out from the molar mass of the structure shown. Where two headings read alike, the source gives them in different places.

In one test the test system is S. epidermidis SE1. The test is described as follows: MIC, extended Gram-positive panel. The settings on record: S. epidermidis SE1; in µg/mL. Type of test: cell-based.
For another test, the system named is M6. The test is described as follows: MIC, microdilution broth method. Type of test: cell-based. For orientation: Broth dilution looks for growth in wells or tubes with falling amounts of substance.
The test system of test [1] is multidrug resistant strains. As to the kind of experiment: Reserpine growth assay in several multidrug resistant strains. Format: cell-based. Particulars: FIG. 27.
Procedure: Reserpine was added at a final concentration of 10 g/mL (made up at 40 μg/mL in TSB, 50 μL per well). The bacteria were added at an OD of 0.01 in TSB (100 μL/well). The plate was a normal clear plate as used for MICs. OD was read every 30 minutes for 9 hours (the literature states 7 hours, but this is strain-dependent). Blanks of TSB and water were added to ensure no infections were present.
A further test concerns S. aureus SA10. The test is described as follows: MIC, extended Gram-positive panel. Format: cell-based. Particulars: S. aureus SA10; in µg/mL.
The next test concerns S. aureus SA8. The test is described as follows: MIC, extended Gram-positive panel. Type of test: cell-based. Particulars: S. aureus SA8.
A further test concerns S. aureus SA1. Type of test: cell-based. The settings on record: S. aureus SA1.
The test system of the next test is S. aureus SA3. As to the kind of experiment: MIC, extended Gram-positive panel. Type of test: cell-based. The settings on record: S. aureus SA3.
The next test concerns S. aureus SA2. Type of test: cell-based. Particulars: S. aureus SA2; in µg/mL.
The subject of a further test is S. haemolyticus SH1. As to the kind of experiment: MIC, extended Gram-positive panel. Format: cell-based. The settings on record: S. haemolyticus SH1.
Another test has as its system S. aureus SA5. The test is described as follows: MIC, extended Gram-positive panel. Type of test: cell-based. The settings on record: S. aureus SA5.
A further test relates to S. aureus SA6. The test is described as follows: MIC, extended Gram-positive panel. Format: cell-based. Particulars: S. aureus SA6.
A further test relates to S. aureus SA7. The test is described as follows: MIC, extended Gram-positive panel. Type of test: cell-based. The settings on record: S. aureus SA7.
For a further test, the system named is E. faecalis EF1. The test is described as follows: MIC, extended Gram-positive panel. Format: cell-based. Particulars: E. faecalis EF1.
The next test deals with S. aureus SA9. As to the kind of experiment: MIC, extended Gram-positive panel. Particulars: S. aureus SA9. Format: cell-based.
Another test relates to E. faecium EF2. As to the kind of experiment: MIC, extended Gram-positive panel. Type of test: cell-based. The settings on record: E. faecium EF2; in µg/mL.
The next test concerns S. aureus SA4. As to the kind of experiment: MIC, extended Gram-positive panel. Type of test: cell-based. Particulars: S. aureus SA4.
The subject of the next test is EMRSA15. The test is described as follows: MIC, microdilution broth method. Type of test: cell-based, Staphylococcus aureus. The settings on record: EMRSA15, vs parent fluoroquinolone.
The next test relates to EMRSA16. The test is described as follows: MIC, microdilution broth method. Type of test: cell-based, Staphylococcus aureus. The settings on record: EMRSA16, vs parent fluoroquinolone.
A further test relates to EC12923. The test is described as follows: MIC, microdilution broth method. The settings on record: EC12923; Normal (without PMBN); in µg/mL. Type of test: cell-based.
A further test relates to Ab17978. The test is described as follows: MIC, microdilution broth method. Format: cell-based. Particulars: Ab17978; Normal (without PMBN).
In the next test the test system is MSSA 9144 strain. The test is described as follows: Reserpine assay. Format: cell-based, S. aureus. Particulars: compound at 0.25×MIC with reserpine. Here is the method:
(§1) A simple plate based method was used as described by Beyer et al. (24). […] Reserpine was added at a final concentration of 10 µg/mL (made up at 40 μg/mL in TSB, 50 μL per well). The bacteria were added at an OD of 0.01 in TSB (100 μL/well). The plate was a normal clear plate as used for MICs. OD was read every 30 minutes for 9 hours (the literature states 7 hours, but this is strain-dependent). Blanks of TSB and water were added to ensure no infections were present.
(§2) The mechanism of inhibition for reserpine involves direct binding to and competitive inhibition of the efflux pump during drug/H^+ antiport. This assay was validated as a method for testing active efflux of fluoroquinolones in Staphylococcus strains by Beyer et al. (24).

The test system of a further test is EMRSA 15 strain. The test is described as follows: Reserpine assay. Type of test: cell-based, S. aureus. The settings on record: compound at 0.25×MIC with reserpine. How it is done: as §1, §2

Turning to `O=C(O)c1cn(C2CC2)c2cc(N3CCNCC3)c(F)cc2c1=O` [Ciprofloxacin, ciprofloxacin, reference compound], in the test on S. epidermidis SE1, the MIC is on record as 0.5-1.
For `C[C@H]1COc2c(N3CC[C@@H](Nc4cnccn4)C3)c(F)cc3c(=O)c(C(=O)O)cn1c23` [KSN-BL1], the MIC in the test on M6 (Klebsiella pneumoniae (M6), read-out: MIC) is 0.5 µg/mL (≈ 1.18 µM).
On to `Cc1cc(C)nc(N[C@@H]2CCN(c3c(F)cc4c(=O)c(C(=O)O)cn5c4c3OC[C@@H]5C)C2)n1` [KSN-BL7], for which, in test [1], the “efflux from the bacteria (reserpine growth assay)” value is recorded as “reduced efflux”.
For the compound `O=C(O)c1cn(C2CC2)c2cc(N3CCN(Cc4cccc5ccccc45)CC3)c(F)cc2c1=O` [ML-77-005], the MIC stood at 2 against S. aureus SA10; 2 µg/mL (≈ 4.24 µM) with S. aureus SA8; 2 µg/mL (≈ 4.24 µM) in the test with S. aureus SA1; 2 µg/mL (≈ 4.24 µM) against S. aureus SA3; 0.5 in the test with S. aureus SA2; 4 µg/mL (≈ 8.48 µM) in the test with S. haemolyticus SH1. For the same compound, the MIC with S. aureus SA5 was determined as 2 µg/mL (≈ 4.24 µM); with S. aureus SA6 it was 2 µg/mL (≈ 4.24 µM); in the test on S. aureus SA7, 2 µg/mL (≈ 4.24 µM); against E. faecalis EF1, 2 µg/mL (≈ 4.24 µM); with S. aureus SA9, 2 µg/mL (≈ 4.24 µM); in the test on E. faecium EF2, 2. The same compound yielded an MIC against S. aureus SA4 of 2 µg/mL (≈ 4.24 µM).
As to `CCn1cc(C(=O)O)c(=O)c2cc(F)c(N3CCN(Cc4cccc5ccccc45)CC3)nc21` [ML-77-025], the “fold potentiation of MIC” value with EMRSA15 and in the test with EMRSA16 was 64-128 fold throughout.
In the case of `C[C@H]1COc2c(N3CCN(c4ccncn4)CC3)c(F)cc3c(=O)c(C(=O)O)cn1c23` [ML-83-001, (S)-9-fluoro-3-methyl-7-oxo-10-(4-(pyrimidin-4-yl)piperazin-1-yl)-2,3-dihydro-7H-[1,4]oxazino[2,3,4-ij]quinoline-6-carboxylic Acid], the MIC in the test on EC12923 is recorded as 1-4.
Consider `C[C@H]1COc2c(N3CCN(c4ccncc4)CC3)c(F)cc3c(=O)c(C(=O)O)cn1c23` [ML-83-019], for which the MIC in the test with Ab17978 was found to be 64 µg/mL (≈ 151 µM); against EC12923, 32; in the test on M6 (M6, Normal (without PMBN), in µg/mL), 64.
Consider `CCn1cc(C(=O)O)c(=O)c2cc(F)c(N3CCNCC3)cc21` [NOR], for which the MIC is 1-4 against S. epidermidis SE1, 64 µg/mL (≈ 200 µM) in the test with S. aureus SA3, 8-64 in the test on S. aureus SA2 and 64 µg/mL (≈ 200 µM) against S. aureus SA4.
`CCn1cc(C(=O)O)c(=O)c2cc(F)c(N3CCNCC3)cc21` [Norfloxacin, norfloxacin, reference compound]: the “efflux by the strain (reserpine assay)” value with MSSA 9144 strain and with EMRSA 15 strain was “effluxed” throughout.
